Several values for one entry are separate records, joined by “and”; a condition that tells them apart may be missing. Equal values may be shown once.
Columns and labels:
[1] = target: T1, HIV-1 protease (Human immunodeficiency virus type 1 group M subtype B, UniProt P04585); experiment: biochemical; conditions: for inhibition at 0.37 µM: read-out: HIV-1 Protease % Inhib, dose 0.370 uM; for inhibition at 1.1 µM: read-out: HIV-1 Protease % Inhib, dose 1.100 uM; for inhibition at 3.3 µM: read-out: HIV-1 Protease % Inhib, dose 3.300 uM; for inhibition at 10 µM: read-out: HIV-1 Protease % Inhib, dose 10.000 uM; for inhibition at 30 µM: read-out: HIV-1 Protease % Inhib, dose 30.000 uM; for inhibition at 0.123 µM: read-out: HIV-1 Protease % Inhib, dose 0.123 uM
Method in brief: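 Biotinylated, FITC-labeled peptide substrate (20 μl of 0.2 μM) incubated with HIV-1 protease (10 μl of 0.1 μM) and compound in 0.1 M sodium acetate pH 5.5, 1.0 M NaCl, 0.05% NP-40, 1 h, room temperature, dark. Streptavidin beads then capture uncleaved substrate; filtered labeled product read by fluorescence, giving percent inhibition.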

[2] = target: T1, HIV-1 protease; experiment: biochemical; conditions: read-out: HIV-1 FITC KI
Method in brief: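 Ki from two-fold serial inhibitor dilutions (24–48 concentrations) with 40 nM HIV-1 protease stock and 200 μM substrate stock, 90 min at room temperature; stopped with avidin beads. Reference inhibitor run in parallel; Ki by nonlinear least-squares fit.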

## CS(=O)(=O)Nc1cccc(C(c2c(O)c3c(oc2=O)CCCCC3)C2CC2)c1 (stereo not shown) [Example 364, N-[3-[Cyclopropyl(2,5,6,7,8,9-hexahydro-4-hydroxy-2-oxocyclohepta[b]pyran-3-yl)methyl]phenyl]-methanesulfonamide]
[1]
  inhibition at 0.37 µM: 17.2%
  inhibition at 1.1 µM: 53.5%
  inhibition at 3.3 µM: 78.7%
  inhibition at 10 µM: 100%
  inhibition at 30 µM: 90.2%
[2]
  Ki: 0.118 µM

## NC(=O)c1ccc(S(=O)(=O)Nc2cccc(C(c3c(O)c4c(oc3=O)CCCCCC4)C3CC3)c2)cc1 (stereo not shown) [Example 365A, 4-[[[3-[Cyclopropyl(5,6,7,8,9,10-hexahydro-4-hydroxy-2-oxo-2H-cycloocta[b]pyran-3-yl)methyl]phenyl]amino]sulfonyl]-benzamide]
[1]
  inhibition at 0.123 µM: 83.8%
  inhibition at 0.37 µM: 106%
  inhibition at 1.1 µM: 115%
  inhibition at 3.3 µM: 116%
  inhibition at 10 µM: 117%
  inhibition at 30 µM: 116%
[2]
  Ki: 0.00186 µM

## I.O=c1oc2c(c(O)c1C(c1cccc(NS(=O)(=O)CCCN3CCOCC3)c1)C1CC1)CCCCCC2 (stereo not shown) [Example 365B (Third Title Compound), N-[3-[Cyclopropyl(5,6,7,8,9,10-hexahydro-4-hydroxy-2-oxo-2H-cycloocta[b]pyran-3-yl)methyl]phenyl]-4-morpholinepropanesulfonamide hydrogen iodide salt]
[1]; dose 0.123 uM
  HIV-1 Protease % Inhib: 29.06%
[1]; dose 0.370 uM
  HIV-1 Protease % Inhib: 56.47%
[1]; dose 1.100 uM
  HIV-1 Protease % Inhib: 93.46%
[1]; dose 3.300 uM
  HIV-1 Protease % Inhib: 90.63%
[1]; dose 10.000 uM
  HIV-1 Protease % Inhib: 90.94%
[1]; dose 30.000 uM
  HIV-1 Protease % Inhib: 85.31%
[2]
  Ki: 0.0143 µM

## O=c1oc2c(c(O)c1C(c1cccc(NS(=O)(=O)CCCI)c1)C1CC1)CCCCCC2 (stereo not shown) [Example 365C, 3-Iodo-N-[3-[cyclopropyl(5,6,7,8,9,10-hexahydro-4-hydroxy-2-oxo-2H-cycloocta[b]pyran-3-yl)methyl]phenyl]-1-propanesulfonamide]
[1]
  inhibition at 0.123 µM: 63%
  inhibition at 0.37 µM: 93.6%
  inhibition at 1.1 µM: 102%
  inhibition at 3.3 µM: 71.5%
  inhibition at 10 µM: 87.5%
  inhibition at 30 µM: 83.5%
[2]
  Ki: 0.0166 µM

## CCCC(c1ccccc1)c1c(O)c2c(oc1=O)CCCCCC2 (stereo not shown) [Example 369, 5,6,7,8,9,10-Hexahydro-4-hydroxy-3-(1-phenylbutyl)-2H-cycloocta[b]pyran-2-one]
[1]
  inhibition at 0.123 µM: 54.9%
  inhibition at 0.37 µM: 83.5%
  inhibition at 1.1 µM: 96%
  inhibition at 3.3 µM: 97.1%
  inhibition at 10 µM: 111%
  inhibition at 30 µM: 93.9%
[2]
  Ki: 0.0285 µM

## CC(C)C(c1cccc(N)c1)c1c(O)c2c(oc1=O)CCCCCC2 (stereo not shown) [Example 371, 3-[1-(3-Aminophenyl)-2-methylpropyl]-5,6,7,8,9,10-hexahydro-4-hydroxy-2H-cycloocta[b]pyran-2-one]
[1]
  inhibition at 0.123 µM: 86.8%
  inhibition at 0.37 µM: 109%
  inhibition at 1.1 µM: 110%
  inhibition at 3.3 µM: 113%
  inhibition at 10 µM: 108%
  inhibition at 30 µM: 110%
[2]
  Ki: 0.00735 µM

## CC(C)C(c1cccc(NS(=O)(=O)c2ccc(Cl)cc2)c1)c1c(O)c2c(oc1=O)CCCCCC2 (stereo not shown) [Example 373, 4-Chloro-N-[3-[1-(6,7,8,9,10-hexahydro-4-hydroxy-2-oxo-2H-cycloocta[b]pyran-3-yl)-2-methylpropyl]phenyl]-benzenesulfonamide]
[1]
  inhibition at 0.123 µM: 31.8%
  inhibition at 0.37 µM: 68.9%
  inhibition at 1.1 µM: 87%
  inhibition at 3.3 µM: 97.1%
  inhibition at 10 µM: 102%
  inhibition at 30 µM: 105%
[2]
  Ki: 0.0183 µM

## CC(C)C(c1cccc(NS(=O)(=O)c2cn(C)cn2)c1)c1c(O)c2c(oc1=O)CCCCCC2 (stereo not shown) [Example 374, N-[3-[1-(5,6,7,8,9,10-Hexahydro-4-hydroxy-2-oxo-2H-cycloocta[b]pyran-3-yl)-2-methylpropyl]phenyl]-1-methyl-1H-imidazole4-sulfonamide]
[1]
  inhibition at 0.123 µM: 121%
  inhibition at 0.37 µM: 121%
  inhibition at 1.1 µM: 131%
  inhibition at 3.3 µM: 125%
  inhibition at 10 µM: 129%
  inhibition at 30 µM: 128%
[2]
  Ki: 0.0013 µM and 0.00072 µM

— patent US5686486A, “4-hydroxy-benzopyran-2-ones and 4-hydroxy-cycloalkyl[b]pyran-2-ones useful to treat retroviral infections” (priority 1995, dated 1997)
